In PMC12040169 (PLOS Biology, 2025):

test: in vitro; conditions: human, hela cells

Work on `CS(=O)(=O)c1ccc(-c2ccc3c(c2)CCN(C2CCN(C(=O)Oc4ccccc4)CC2)C3)cc1` [CBK169518] yielded a viability at 28.5 h, 10 µM of 90.1%.

same assay, conditions: human, hela cells, % viability

Compared with `Nc1nc2c(ncn2[C@H]2C[C@@H](O)[C@@H](CO)O2)c(=S)[nH]1` [CBK201213], `c1ccc(NCc2ncnc3c2ncn3C2CCCCO2)cc1` (centres unmarked) [CBK021593] is higher in viability at 28.5 h, 10 µM: 59.3% for the first, 100% for the second.

First: Fc1ccc(OCCN2CCC3(C2)OCCc2c3[nH]c3ccccc23)cc1 (centres unmarked) [CBK061787]
Second: O=C1Cc2c(ccc3ccccc23)C2(CCN(CC3CCCCO3)CC2)N1 (centres unmarked) [CBK039395]
The viability at 28.5 h, 10 µM of the first is lower: 86.7% for the first, 98.8% for the second.

First: Cc1cccc(C)c1NC(=O)CCC(=O)OCc1ccccc1 [CBK267158]
Second: Cc1c(C(=O)O)sc2nc(SCC(=O)Nc3ccc(OCc4ccccc4)cc3)[nH]c(=O)c12 [CBK296992]
The viability at 28.5 h, 10 µM of the first is higher: 102% for the first, 88.5% for the second.

First: CCCc1[nH]nc(O)c1CCc1ccccc1C(F)(F)F [CBK075081]
Second: CNC(=O)CCCc1[nH]nc(O)c1Cc1c(Cl)cccc1Cl [CBK085827]
The viability at 28.5 h, 10 µM of the first is higher: 93.9% for the first, 89.4% for the second.

Going from `CC(=O)Nc1cccc(C(=O)N2CCN(CC3CCCO3)CC2)c1` (centres unmarked) [CBK305158] to `Cc1csc2nc(CN3CCN(C(=O)c4ccccc4)CC3)cc(=O)n12` [CBK305019], the viability at 28.5 h, 10 µM rises from 96% to 110%.

First: COc1ccc(F)c(CN2CCC3(CCCNC3=O)CC2)c1 [CBK284827]
Second: Cc1nc(C(=O)N2CCC3(CCCCOc4ccccc4C(=O)NCCNC3=O)CC2)co1 [CBK292089]
The viability at 28.5 h, 10 µM of the first is lower: 102% for the first, 103% for the second.

Going from `O=C(O)c1cccc(-c2ccc(/C=C3\SC(=S)N(Cc4ccco4)C3=O)o2)c1` [CBK265726] to `CSCCC(C(=O)O)N1C(=O)C(=Cc2ccc(-c3cccc(Cl)c3)o2)SC1=S` (centres unmarked) [CBK296982], the viability at 28.5 h, 10 µM rises from 98.3% to 99.3%.

Compared with `O=C(NCCCn1ccnc1)c1cccnc1-c1nc2ccccc2s1` [CBK269939], `Cc1ccc(SCCCn2ccnc2)cc1` [CBK269733C] is lower in viability at 28.5 h, 10 µM: 90.5% for the first, 86.3% for the second.

First: Cc1nccn1CC(C)CNc1ccc(C(=O)c2ccccc2)cc1[N+](=O)[O-] (centres unmarked) [CBK298336]
Second: O=C(CSc1ccccn1)Nc1ccccc1-c1ccccc1 [CBK263553]
The viability at 28.5 h, 10 µM of the first is lower: 80.4% for the first, 90.6% for the second.

Going from `OCCN1CC2(CCN(Cc3ncc[nH]3)CC2)c2ccccc21` [CBK126763] to `Cn1cc(CCC(=O)N2CCN(Cc3ccccn3)CC2)cn1` [CBK305094], the viability at 28.5 h, 10 µM rises from 102% to 113%.

First: CNC(=O)C1(Cc2ccccc2-c2ccccc2)CCN(C(=O)Cc2ccccc2)CC1 [CBK285695]
Second: Clc1ccc(-c2nc(C3CCN(CCc4ccccc4)CC3)n3ccccc23)cc1 [CBK035316]
The viability at 28.5 h, 10 µM of the first is higher: 93.3% for the first, 90.7% for the second.

First: O=P(O)(CCc1ccncc1)CN1CCOCC1 [CBK262317]
Second: O=c1c2ccccc2[nH]c(=S)n1CCCN1CCOCC1 [CBK092141]
The viability at 28.5 h, 10 µM of the first is higher: 89.3% for the first, 88.1% for the second.

Compared with `CCn1cc(C(=O)N2CCCCC2c2nc3ccccc3[nH]2)c(C)n1` (centres unmarked) [CBK283778], `Cn1cc(-c2ccncc2)c(C2CCCCN2C(=O)c2ccccc2)n1` (centres unmarked) [CBK283444] is lower in viability at 28.5 h, 10 µM: 91.5% for the first, 75.7% for the second.

Going from `O=C(NCc1ccc(CO)cc1)[C@@H]1CN(Cc2ccccc2)C[C@H]1C(=O)c1ccc(F)cc1` [CBK286430] to `O=C(N[C@@H]1CCOC[C@H]1Oc1ccc(CO)cc1)c1ccc(F)cc1` [CBK306571], the viability at 28.5 h, 10 µM rises from 97.8% to 112%.

Compared with `Cn1c(SCC(=O)N2CCN(c3ccccc3)CC2)nnc1-c1cccc([N+](=O)[O-])c1` [CBK265209], `COCC(=O)N1CCN(Cc2cccc(-c3ccccn3)c2)CC1` [CBK304035] is lower in viability at 28.5 h, 10 µM: 105% for the first, 91.3% for the second.

First: O=c1[nH]c2ncc(-c3cncc4ccccc34)nc2n1Cc1ccccc1 [CBK065113]
Second: Cn1c(=O)c(C(=O)Nc2ccc(OCc3ccccc3F)cc2)nc2ccccc21 [CBK285820]
The viability at 28.5 h, 10 µM of the first is lower: 99.1% for the first, 103% for the second.

First: CCCCOc1ccc(NC(=O)NCCc2cccs2)cc1 [CBK045202]
Second: COc1ccc(-c2cnc(NCC3CC3)c(C(=O)NCc3ccco3)c2)cc1 [CBK076283]
The viability at 28.5 h, 10 µM of the first is higher: 105% for the first, 96.3% for the second.

First: NNC(=O)COc1ccc(Cl)cc1Cl [CBK261671]
Second: COc1ccc(Cl)cc1Nc1ncnc(N)n1 [CBK288195]
The viability at 28.5 h, 10 µM of the first is lower: 92.6% for the first, 100% for the second.

Going from `CCc1oc2ccc(Cl)cc2c1C(=O)CCN1CCCCC1` [CBK009675C] to `Cn1c(=O)c2c(nc(CN3CCCCC3)n2CC(=O)c2ccccc2)n(C)c1=O` [CBK269563], the viability at 28.5 h, 10 µM falls from 99.1% to 87.1%.

Compared with `Cc1cc(Cl)cc(Cl)c1S(=O)(=O)Nc1nc(CC(=O)O)cs1` [CBK000573], `CCc1cccc(CC)c1NC(=O)CN(c1cccc(Cl)c1Cl)S(C)(=O)=O` [CBK265934] is higher in viability at 28.5 h, 10 µM: 92% for the first, 103% for the second.

Compared with `Cc1cc(Cl)ccc1OCC(O)CN1CCN(Cc2ccc3c(c2)OCO3)CC1` (centres unmarked) [CBK074383], `COc1ccc([C@@]23CCCN(C(=O)Nc4ccc(C)c(F)c4)C[C@@H]2N(C)CC3)cc1OC` [CBK056680T] is higher in viability at 28.5 h, 10 µM: 92.3% for the first, 110% for the second.

First: CN(C)c1cc(CNC(=O)c2cc3ccccc3oc2=O)ccn1 [CBK297917]
Second: COc1cccc2cc(C(=O)Nc3cccc(C)n3)oc12 [CBK287659]
The viability at 28.5 h, 10 µM of the first is lower: 88.8% for the first, 94.5% for the second.

First: C(=N\Nc1nc2ccccc2[nH]1)/c1cccs1 [CBK025417]
Second: O=C(Nc1ccccc1-c1nc2ccccc2[nH]1)c1ccc2c(c1)OCCO2 [CBK293924]
The viability at 28.5 h, 10 µM of the first is lower: 87.6% for the first, 104% for the second.

Going from `O=C(Nc1ccc([N+](=O)[O-])cc1)Nc1ccc(N2CCOCC2)c2nonc12` [CBK266885] to `O=C1/C(=N\Nc2ccc([N+](=O)[O-])cc2[N+](=O)[O-])c2cc(Br)ccc2N1CN1CCCCC1` [CBK260927], the viability at 28.5 h, 10 µM rises from 93.1% to 110%.

Compared with `N#Cc1c(NC(=O)CSc2nnc(-c3ccncc3)o2)sc2c1CCCC2` [CBK266374], `O=C(CSc1nnc(-c2ccncc2)[nH]1)c1ccc(O)cc1O` [CBK264353] is higher in viability at 28.5 h, 10 µM: 99.2% for the first, 102% for the second.

Going from `O=C1NCCNC(=O)C2(C/C=C/COc3ccccc31)CCN(C(=O)CCC1CCCC1)CC2` [CBK291995] to `O=C(CCS(=O)(=O)c1ccccc1)Nc1cc2ccccc2c(N2CCNCC2)n1` [CBK028419T], the viability at 28.5 h, 10 µM falls from 118% to 88.1%.

Going from `COC[C@H]1CCCN1C(=O)CC[C@H]1CNC(=O)[C@@H]2[C@@H](CCN2C2CCCCC2)N1C` [CBK289039] to `Cc1cc(NC(=O)CCN2CCC(N3CCNC3=O)CC2)no1` [CBK304909], the viability at 28.5 h, 10 µM rises from 89.7% to 89.9%.

First: COc1ccc([C@@]23CCC(N)C[C@@H]2N(C)CC3)c(F)c1OC (some centres unmarked) [CBK067416]
Second: COc1ccc(C)cc1-n1ccc(C(=O)NC(C)(C)C)n1 [CBK306315]
The viability at 28.5 h, 10 µM of the first is lower: 78.3% for the first, 78.8% for the second.

Going from `CN1CCN(C(C(=O)O)c2c[nH]c3cc(OCc4ccccc4)ccc23)CC1` (centres unmarked) [CBK286654] to `CN1CCN(C(=S)c2ccc(OCC(=O)Nc3cccc(C(F)(F)F)c3)cc2)CC1` [CBK266826], the viability at 28.5 h, 10 µM rises from 84.6% to 92.2%.

First: Cc1ccc(N2C(=O)CSC23C(=O)Nc2ccc(Br)cc23)cc1 (centres unmarked) [CBK093453]
Second: Cc1ccc(C(=O)O/N=C(\N)c2ccccn2)cc1 [CBK263265]
The viability at 28.5 h, 10 µM of the first is lower: 84.4% for the first, 90.9% for the second.

Going from `O=c1[nH]nc2c(S(=O)(=O)N3CCCC3)cccn12` [CBK288460] to `CSc1ncc(Cl)c(C(=O)Nc2nc(-c3ccc(S(=O)(=O)N4CCCCCC4)cc3)cs2)n1` [CBK268785], the viability at 28.5 h, 10 µM rises from 85.9% to 96.5%.

Going from `Cc1oc(-c2cccs2)cc1C(=O)O` [CBK021183] to `Cc1csc(-c2ccc(C(=O)N(C)CCN(C)C)c(N(C)C)n2)c1` [CBK106088], the viability at 28.5 h, 10 µM rises from 93.5% to 94.1%.

Going from `CN(C)c1nc2n(c(=O)n1)CCS2` [CBK019025] to `COCCC1CN(c2nc(N(C)C)nc3c2CCN(C(C)=O)C3)CCO1` (centres unmarked) [CBK307464], the viability at 28.5 h, 10 µM falls from 92.3% to 82.2%.

First: CSc1nc(N)nc2sc3c(O)cc(=O)[nH]c3c12 [CBK267457]
Second: CN(CCCc1cnn(C)c1)c1nc(N)nc2c1CCCC2 [CBK306766]
The viability at 28.5 h, 10 µM of the first is higher: 105% for the first, 96.5% for the second.

Compared with `O=C(NCCCN1CCOCC1)C(=O)NC1CC1` [CBK267243], `CC1CCc2c(sc3ncnc(NCCCN4CCCCCC4=O)c23)C1` (centres unmarked) [CBK305947] is lower in viability at 28.5 h, 10 µM: 101% for the first, 85.4% for the second.

First: COCCNc1nc(-c2ccc(F)cc2)cnc1N [CBK063591]
Second: Nc1cc2cccnc2c(-c2ccsc2)n1 [CBK081218]
The viability at 28.5 h, 10 µM of the first is higher: 116% for the first, 89.6% for the second.

Compared with `O=C(/C=C/c1ccc(Cl)cc1Cl)NCCNc1c(Cl)cccc1[N+](=O)[O-]` [CBK264295], `CCNS(=O)(=O)c1ccc(NC(=O)c2nc3nc(C)cc(C(F)F)n3n2)cc1` [CBK266146] is lower in viability at 28.5 h, 10 µM: 110% for the first, 104% for the second.

First: CC(C)(C)C(=O)CSc1nnc(-c2ccccn2)s1 [CBK006894]
Second: CCn1c(=O)n(CC(=O)N(C)C)c2cccnc21 [CBK282299]
The viability at 28.5 h, 10 µM of the first is higher: 91.9% for the first, 89.1% for the second.

Compared with `O=C(Nc1cc2ccccc2c(Br)n1)C(F)(F)F` [CBK063301], `Nc1cc2ccccc2c(-c2cc(F)cc(F)c2)n1` [CBK085711] is higher in viability at 28.5 h, 10 µM: 82% for the first, 97% for the second.

Going from `O=C(O)CC1SC(Nc2ccccc2F)=NC1=O` (centres unmarked) [CBK059096] to `CN(C)S(=O)(=O)N(CC(=O)Nc1ccccc1C(F)(F)F)c1ccccc1` [CBK268665], the viability at 28.5 h, 10 µM rises from 94.9% to 102%.

Going from `O=C(c1ccc(OC(F)(F)F)cc1)N1CCC2(CCN(C(=O)c3cc(F)c(F)cc3F)C2)C1` (centres unmarked) [CBK131384] to `CCOc1ccc2c(c1)C(=O)c1cc(OCC(=O)O)ccc1-2` [CBK286693], the viability at 28.5 h, 10 µM falls from 108% to 94.3%.

Going from `O=C(Cn1c2ccccc2c2ccccc21)N1CCn2cnnc2C1` [CBK283724] to `CCOC(=O)NC(=O)CSc1nnc(C2COc3ccccc3O2)n1-c1ccccc1` (centres unmarked) [CBK297884], the viability at 28.5 h, 10 µM rises from 88.2% to 88.9%.

Going from `NS(=O)(=O)c1ccc(CNC2CC(=O)N(CCc3ccccc3)C2=O)cc1` (centres unmarked) [CBK262464] to `O=C(Nc1c(F)cccc1F)N(Cc1ccc2ccccc2c1)CC1CCNCC1` [CBK119480], the viability at 28.5 h, 10 µM rises from 91.7% to 100%.

Going from `CCn1cc(S(=O)(=O)NC2CCc3[nH]c4ccc(C)cc4c3C2)cn1` (centres unmarked) [CBK304790] to `Cc1nc(C(Cc2ccsc2)NC(=O)C(C)(C)N)sc1C` (centres unmarked) [CBK284775], the viability at 28.5 h, 10 µM falls from 99.7% to 93%.
